Drawing on patent US8404718B2, “Combinations of pyrazole kinase inhibitors” (Astex Therapeutics Limited, priority 2005, dated 2013), this text covers IC50 for 52 compounds.

The target of one experiment is Activated CDK2/CyclinA (Homo sapiens, UniProt P24941). The experiment in a line: Activated CDK2/CyclinA kinase inhibitory activity assay (IC50), Example 250A. It is filed as biochemical. Here is the method: Compounds of the invention were tested for kinase inhibitory activity using the following protocol.
The reaction is allowed to proceed for 2 to 4 hours before being stopped with an excess of ortho-phosphoric acid (5 μl at 2%).
γ^33P-ATP which remains unincorporated into the histone H1 is separated from phosphorylated histone H1 on a Millipore MAPH filter plate. The wells of the MAPH plate are wetted with 0.5% orthophosphoric acid, and then the results of the reaction are filtered with a Millipore vacuum filtration unit through the wells. Following filtration, the residue is washed twice with 200 μl of 0.5% orthophosphoric acid. Once the filters have dried, 20 μl of Microscint 20 scintillant is added, and then counted on a Packard Topcount for 30 seconds.

Experiment [1] deals with human colon carcinoma cell line HCT 116. The experiment can be described thus: Anti-proliferative activity, Alamar Blue assay. It is filed as cell-based. As to conditions: 72 hours compound incubation, read-out: IC50, inhibition of cell growth, HCT 116. Here is the method: The anti-proliferative activities of the combinations of the invention, as well as the individual components of the combinations, are determined by measuring the ability of the compounds to inhibition of cell growth in a number of cell lines. Inhibition of cell growth is measured using the Alamar Blue assay (Nociari, M. M, Shalev, A., Benias, P., Russo, C. Journal of Immunological Methods 1998, 213, 157-167). The method is based on the ability of viable cells to reduce resazurin to its fluorescent product resorufin. For each proliferation assay cells are plated onto 96 well plates and allowed to recover for 16 hours prior to the addition of inhibitor compounds for a further 72 hours. At the end of the incubation period 10% (v/v) Alamar Blue is added and incubated for a further 6 hours prior to determination of fluorescent product at […]. In the case of the non-proliferating cell assay cells are maintained at confluence for 96 hour prior to the addition of inhibitor compounds for a further 72 hours. The number of viable cells is determined by Alamar Blue assay as before. All cell lines are obtained from ECACC (European Collection of cell Cultures).

Turning to `COc1ccccc1CNC(=O)c1n[nH]cc1NC(=O)c1c(F)cccc1F` [Example 96], the IC50 (on Activated CDK2/CyclinA; in experiment [1]) was under 20 µM each time. Consider `Cc1nn(C)c(C)c1CNC(=O)c1n[nH]cc1NC(=O)c1c(F)cccc1F` [Example 99], for which the IC50 (commonly the concentration needed to halve the response being measured) was under 20 µM on Activated CDK2/CyclinA and under 100 µM in experiment [1].

Turning to `O=C(NCC1CCCO1)c1n[nH]cc1NC(=O)c1c(F)cccc1F` (centres unmarked) [Example 100], the IC50 (on Activated CDK2/CyclinA; in experiment [1]) was under 20 µM each time.

Regarding `Cc1cc(CNC(=O)c2n[nH]cc2NC(=O)c2c(F)cccc2F)no1` [Example 101], the IC50 (on Activated CDK2/CyclinA; in experiment [1]) was under 20 µM in each case. `O=C(NCc1cccnc1)c1n[nH]cc1NC(=O)c1c(F)cccc1F` [Example 103]: the IC50 (against Activated CDK2/CyclinA; in experiment [1]) was under 20 µM each time. For `O=C(NCc1ccncc1)c1n[nH]cc1NC(=O)c1c(F)cccc1F` [Example 104], the IC50 (against Activated CDK2/CyclinA; in experiment [1]) was under 20 µM each time. Take `O=C(NCc1ccco1)c1n[nH]cc1NC(=O)c1c(F)cccc1F` [Example 107]: the half-maximal inhibitory concentration (IC50) (against Activated CDK2/CyclinA; in experiment [1]) was under 20 µM throughout. On to `CC(NC(=O)c1n[nH]cc1NC(=O)c1c(F)cccc1F)c1ccccc1` (centres unmarked) [Example 108], for which the IC50 against Activated CDK2/CyclinA was under 20 µM; in experiment [1], under 100 µM. The matching figures for `O=C(NC1CCN(CC2CC2)CC1)c1n[nH]cc1NC(=O)c1c(F)cccc1F` [Example 109]: under 20 µM and under 20 µM. The matching figures for `O=C(NC1CCN(c2ncccn2)CC1)c1n[nH]cc1NC(=O)c1c(F)cccc1F` [Example 110]: under 20 µM and under 20 µM. The matching figures for `O=C(NCC1CCNCC1)c1n[nH]cc1NC(=O)c1c(F)cccc1F` [Example 111]: under 20 µM and under 20 µM. As for `O=C(NC1CCN(c2ccccn2)CC1)c1n[nH]cc1NC(=O)c1c(F)cccc1F` [Example 112], the IC50 (against Activated CDK2/CyclinA; in experiment [1]) was under 20 µM throughout.

`CC1CCC(NC(=O)c2n[nH]cc2NC(=O)c2c(F)cccc2F)CC1` (centres unmarked) [Example 113]: the half-maximal inhibitory concentration (IC50) (at Activated CDK2/CyclinA; in experiment [1]) was under 20 µM in each case.

Consider `O=C(NC1CCN(CC(F)(F)F)CC1)c1n[nH]cc1NC(=O)c1c(F)cccc1F` [Example 114], for which the half-inhibitory concentration (IC50) (against Activated CDK2/CyclinA; in experiment [1]) was under 20 µM in each case. With `O=C(NC1CCN(c2cccc(Cl)n2)CC1)c1n[nH]cc1NC(=O)c1c(F)cccc1F` [Example 115], the half-inhibitory concentration (IC50) (against Activated CDK2/CyclinA; in experiment [1]) was under 20 µM in each case. With `O=C(N[C@H]1CC[C@H](NC2CCOCC2)CC1)c1n[nH]cc1NC(=O)c1c(F)cccc1F` [Example 116], the IC50 (at Activated CDK2/CyclinA; in experiment [1]) was under 20 µM each time.

For `CN1CCN([C@H]2CC[C@H](NC(=O)c3n[nH]cc3NC(=O)c3c(F)cccc3F)CC2)CC1` [Example 117], the IC50 (on Activated CDK2/CyclinA; in experiment [1]) was under 20 µM in each case. Take `CN1CCN([C@H]2CC[C@@H](NC(=O)c3n[nH]cc3NC(=O)c3c(F)cccc3F)CC2)CC1` [Example 118]: the IC50 (at Activated CDK2/CyclinA; in experiment [1]) was under 20 µM each time.

With `O=C(NC1CCC(CO)CC1)c1n[nH]cc1NC(=O)c1c(F)cccc1F` (centres unmarked) [Example 120], the IC50 (against Activated CDK2/CyclinA; in experiment [1]) was under 20 µM throughout.

`O=C(NC1CCC(N2CCSCC2)CC1)c1n[nH]cc1NC(=O)c1c(F)cccc1F` (centres unmarked) [Example 121]: the IC50 (against Activated CDK2/CyclinA; in experiment [1]) was under 20 µM each time. Turning to `CN(C)[C@H]1CC[C@H](NC(=O)c2n[nH]cc2NC(=O)c2c(F)cccc2F)CC1` [Example 124], the IC50 (against Activated CDK2/CyclinA; in experiment [1]) was under 20 µM throughout. Take `COCCN1CCC(NC(=O)c2n[nH]cc2NC(=O)c2c(F)cccc2F)CC1` [Example 125]: the IC50 (against Activated CDK2/CyclinA; in experiment [1]) was under 20 µM throughout. As to `O=C(N[C@H]1CC[C@H](N2CCS(=O)(=O)CC2)CC1)c1n[nH]cc1NC(=O)c1c(F)cccc1F` [Example 132], the IC50 (on Activated CDK2/CyclinA; in experiment [1]) was under 20 µM throughout. Regarding `O=C(NC1CCN(CC2CCOC2)CC1)c1n[nH]cc1NC(=O)c1c(F)cccc1F` (centres unmarked) [Example 133], the concentration for half-maximal inhibition (IC50) (against Activated CDK2/CyclinA; in experiment [1]) was under 20 µM each time. `CC(C)(C)OC(=O)N1CCC(NC(=O)c2n[nH]cc2NC(=O)c2c(F)cc(F)cc2F)CC1` [Example 136]: the 50% inhibitory concentration (IC50) (against Activated CDK2/CyclinA; in experiment [1]) was under 20 µM in each case. `CO[C@H]1CC[C@H](NC(=O)c2n[nH]cc2NC(=O)c2c(F)cccc2F)CC1` [Example 137]: the IC50 (at Activated CDK2/CyclinA; in experiment [1]) was under 20 µM in each case.

Consider `O=C1CC[C@H](NC(=O)c2n[nH]cc2NC(=O)c2c(F)cccc2F)CN1` [Example 139], for which the IC50 (at Activated CDK2/CyclinA; in experiment [1]) was under 20 µM in each case.

Take `O=C(NC1CCNCC1)c1n[nH]cc1NC(=O)c1c(F)cc(F)cc1F` [Example 148]: the IC50 (against Activated CDK2/CyclinA; in experiment [1]) was under 20 µM in each case.

Take `O=C(N[C@H]1CCCNC1)c1n[nH]cc1NC(=O)c1c(F)cccc1F` [Example 152]: the IC50 (against Activated CDK2/CyclinA; in experiment [1]) was under 20 µM in each case. Consider `COc1ccccc1C(=O)Nc1c[nH]nc1C(=O)N[C@H]1CC[C@H](O)CC1` [Example 153], for which the IC50 (at Activated CDK2/CyclinA; in experiment [1]) was under 20 µM in each case. Turning to `COc1cccc(F)c1C(=O)Nc1c[nH]nc1C(=O)N[C@H]1CC[C@H](O)CC1` [Example 154], the IC50 (against Activated CDK2/CyclinA; in experiment [1]) was under 20 µM each time. As to `O=C(N[C@H]1CC[C@H](O)CC1)c1n[nH]cc1NC(=O)c1c(F)cccc1Cl` [Example 155], the IC50 (against Activated CDK2/CyclinA; in experiment [1]) was under 20 µM each time. Take `COc1cscc1C(=O)Nc1c[nH]nc1C(=O)N[C@H]1CC[C@H](O)CC1` [Example 158]: the 50% inhibitory concentration (IC50) (against Activated CDK2/CyclinA; in experiment [1]) was under 20 µM in each case.

As to `O=C(Nc1c[nH]nc1C(=O)N[C@H]1CC[C@H](O)CC1)c1cccc2c1OCCO2` [Example 159], the half-maximal inhibitory concentration (IC50) (on Activated CDK2/CyclinA; in experiment [1]) was under 20 µM throughout.

In the case of `O=C(Nc1c[nH]nc1C(=O)N[C@H]1CC[C@H](O)CC1)Nc1c(F)cccc1F` [Example 160], the figures for the half-maximal inhibitory concentration (IC50) (against Activated CDK2/CyclinA; in experiment [1]) were under 20 µM and under 100 µM, respectively. The matching figures for `C[N+]1([O-])CCC(NC(=O)c2n[nH]cc2NC(=O)c2c(F)cccc2F)CC1` (centres unmarked) [Example 162]: under 20 µM and under 20 µM. The matching figures for `NC[C@H]1CC[C@H](NC(=O)c2n[nH]cc2NC(=O)c2c(F)cccc2F)CC1` [Example 163]: under 20 µM and under 20 µM.

Take `CS(=O)(=O)NC[C@H]1CC[C@H](NC(=O)c2n[nH]cc2NC(=O)c2c(F)cccc2F)CC1` [Example 164]: the concentration for half-maximal inhibition (IC50) (at Activated CDK2/CyclinA; in experiment [1]) was under 20 µM in each case. For the compound `O=C(N[C@H]1CC[C@H](N2CCOCC2)CC1)c1n[nH]cc1NC(=O)c1c(F)cccc1F` [Example 167], the 50% inhibitory concentration (IC50) (against Activated CDK2/CyclinA; in experiment [1]) was under 20 µM in each case. `O=C(N[C@H]1CC[C@@H](NC2CCOCC2)CC1)c1n[nH]cc1NC(=O)c1c(F)cccc1F` [Example 170] returned an IC50 against Activated CDK2/CyclinA of under 20 µM. Still for that read-out and setting: as for `CN1CCC(NC(=O)Nc2c[nH]nc2C(=O)N[C@H]2CC[C@H](O)CC2)CC1` [Example 171], the figure is under 20 µM; as for `CC(C)(C)OC(=O)N1CCC(NC(=O)c2n[nH]cc2NC(=O)c2ccccc2)CC1` [Example 172], under 20 µM; as for `CC(C)(C)OC(=O)N1CCC(NC(=O)c2n[nH]cc2NC(=O)c2ccc(F)cc2)CC1` [Example 173], under 20 µM. With `CN1CCC(N2CCC(NC(=O)c3n[nH]cc3NC(=O)c3c(F)cccc3F)CC2)CC1` [Example 177], the IC50 against Activated CDK2/CyclinA is under 20 µM. Take `O=C(Nc1c[nH]nc1C(=O)NCC1CC1)c1cccc2c1OCCO2` [Example 178]: the half-inhibitory concentration (IC50) (against Activated CDK2/CyclinA; in experiment [1]) was under 20 µM in each case. As to `CC(C)(C)N1CCC(NC(=O)c2n[nH]cc2NC(=O)c2c(F)cccc2F)CC1` [Example 179], the half-inhibitory concentration (IC50) (on Activated CDK2/CyclinA; in experiment [1]) was under 20 µM throughout. For `CN1CCC(C(=O)Nc2c[nH]nc2C(=O)NCC2CC2)CC1` [Example 181], the IC50 against Activated CDK2/CyclinA was under 20 µM. For `O=C(Nc1c[nH]nc1C(=O)NCC1CC1)c1ccc(N2CCOCC2)cc1Cl` [Example 182], the IC50 is under 20 µM against Activated CDK2/CyclinA and under 100 µM in experiment [1]. In turn, `CC(C)(C)NC(=O)Nc1c[nH]nc1C(=O)NCC1CC1` [Example 184] came in with an IC50 against Activated CDK2/CyclinA of under 20 µM.

`O=C(N[C@@H]1CCNC1)c1n[nH]cc1NC(=O)c1c(F)cccc1F` [Example 185] gave a half-maximal inhibitory concentration (IC50) against Activated CDK2/CyclinA of under 20 µM. Turning to `CN1CCC(NC(=O)c2n[nH]cc2NC(=O)c2c(F)cccc2Cl)CC1` [Example 186], the IC50 (against Activated CDK2/CyclinA; in experiment [1]) was under 20 µM in each case. `CO[C@H]1CC[C@H](NC(=O)c2n[nH]cc2NC(=O)c2c(Cl)cccc2Cl)CC1` [Example 210] came in with a half-maximal inhibitory concentration (IC50) against Activated CDK2/CyclinA of under 20 µM.
